Assay results published in PMC11148045, “Structural basis for recognition of 26RFa by the pyroglutamylated RFamide peptide receptor” (Cell Discovery, 2024).
No end group written: not given here.

Key:
QRFPR mutants [1] = molecular target: T1, QRFPR mutants (Homo sapiens, UniProt Q96P65, Q125A); experiment: 26RFa-induced calcium mobilization, receptor mutants; format: cell-based; conditions: HEK293, QRFPR Q125^3.32A; HEK293, Fluo-4; mean ± S.E.M., n ≥ 3
T1 construct: expressed in transfected cells; host or cells: HEK293, transient transfection by electroporation
Protocol: (§1) The gene encoding the WT QRFPR, PrPRR, KISS1R, NPFF1R, or NPFF2R was subcloned into the pcDNA3.0 vector with the addition of an N-terminal HA tag. All of the mutations used for functional studies were generated by QuickChange PCR and verified by DNA sequencing.
(§2) HEK293 cells were obtained from ATCC (Manassas, VA, USA) and cultured in DMEM supplemented with 10% (v/v) FBS, 100 mg/L penicillin, and 100 mg/L streptomycin in 5% CO2 at 37 °C. For transient transfection, ~2.5 × 10^6 cells were mixed with 2 µg plasmids in 200 µL transfection buffer, and electroporation was carried out with a Scientz-2C electroporation apparatus (Scientz Biotech, Ningbo, China). The experiments were carried out 24 h after transfection.
(§3) For QRFPR, PrRPR, and KISS1R, HEK293 cells transfected with WT receptor or its mutants were seeded at a density of 4 × 10^4 per well into 96-well culture plates and incubated for 24 h at 37 °C in 5% CO2. For NPFF1R and NPFF2R, plasmids were transfected into HEK293 cells stably expressing Gα16. On the next day, cells were incubated with 2 μmol/L Fluo-4 AM in HBSS supplemented with 5.6 mmol/L D-glucose and 250 μmol/L sulfinpyrazone at 37 °C for 45 min. After washing, cells were added with 50 μL HBSS and incubated at room temperature for 10 min, then 25 μL agonist buffer was dispensed into the well using a FlexStation III microplate reader (Molecular Devices), and intracellular calcium change was recorded at an excitation wavelength of 485 nm and an emission wavelength of 525 nm. EC50 and Emax values for each curve were calculated by Prism 8.0 software (GraphPad Software).

QRFPR mutants [2] = molecular target: T2, QRFPR mutants (Homo sapiens, UniProt Q96P65, L193A); experiment: as above; format: cell-based
T2 construct: expressed in transfected cells; host or cells: HEK293, transient transfection by electroporation
Protocol: as §1, §2, §3

QRFPR mutants [3] = molecular target: T3, QRFPR mutants (Homo sapiens, UniProt Q96P65, I218A); experiment: as above; format: cell-based; conditions: HEK293, QRFPR I218^5.42A; HEK293, Fluo-4; mean ± S.E.M., n ≥ 3
T3 construct: expressed in transfected cells; host or cells: HEK293, transient transfection by electroporation
Protocol: as §1, §2, §3

QRFPR mutants [4] = molecular target: T4, QRFPR mutants (Homo sapiens, UniProt Q96P65, I117A); experiment: as above; format: cell-based; conditions: HEK293, QRFPR I117^3.24A; HEK293, Fluo-4; mean ± S.E.M., n ≥ 3
T4 construct: expressed in transfected cells; host or cells: HEK293, transient transfection by electroporation
Protocol: as §1, §2, §3

QRFPR mutants [5] = molecular target: T5, QRFPR mutants (Homo sapiens, UniProt Q96P65, F322A); experiment: as above; format: cell-based; conditions: HEK293, QRFPR F322^7.43A; HEK293, Fluo-4; mean ± S.E.M., n ≥ 3
T5 construct: expressed in transfected cells; host or cells: HEK293, transient transfection by electroporation
Protocol: as §1, §2, §3

QRFPR mutants [6] = molecular target: T6, QRFPR mutants (Homo sapiens, UniProt Q96P65, C118A); experiment: as above; format: cell-based; conditions: HEK293, QRFPR C118^3.25A; HEK293, Fluo-4; mean ± S.E.M., n ≥ 3
T6 construct: expressed in transfected cells; host or cells: HEK293, transient transfection by electroporation
Protocol: as §1, §2, §3

QRFPR mutants [7] = molecular target: T7, QRFPR mutants (Homo sapiens, UniProt Q96P65, D109A); experiment: as above; format: cell-based; conditions: HEK293, QRFPR D109^2.67A; HEK293, Fluo-4; mean ± S.E.M., n ≥ 3
T7 construct: expressed in transfected cells; host or cells: HEK293, transient transfection by electroporation
Protocol: as §1, §2, §3

QRFPR mutants [8] = molecular target: T8, QRFPR mutants (Homo sapiens, UniProt Q96P65, V129A); experiment: as above; format: cell-based; conditions: HEK293, QRFPR V129^3.36A; HEK293, Fluo-4; mean ± S.E.M., n ≥ 3
T8 construct: expressed in transfected cells; host or cells: HEK293, transient transfection by electroporation
Protocol: as §1, §2, §3

QRFPR mutants [9] = molecular target: T9, QRFPR mutants (Homo sapiens, UniProt Q96P65, C201A); experiment: as above; format: cell-based; conditions: HEK293, QRFPR C201^ECL2A; HEK293, Fluo-4; mean ± S.E.M., n ≥ 3
T9 construct: expressed in transfected cells; host or cells: HEK293, transient transfection by electroporation
Protocol: as §1, §2, §3

QRFPR mutants [10] = molecular target: T10, QRFPR mutants (Homo sapiens, UniProt Q96P65, V101A); experiment: as above; format: cell-based; conditions: HEK293, QRFPR V101^2.59A; HEK293, Fluo-4; mean ± S.E.M., n ≥ 3
T10 construct: expressed in transfected cells; host or cells: HEK293, transient transfection by electroporation
Protocol: as §1, §2, §3

QRFPR mutants [11] = molecular target: T11, QRFPR mutants (Homo sapiens, UniProt Q96P65, F289A); experiment: as above; format: cell-based
T11 construct: expressed in transfected cells; host or cells: HEK293, transient transfection by electroporation
Protocol: as §1, §2, §3

QRFPR = conditions: cited from earlier work
Text: The 26RFa/QRFPR system plays critical roles in energy homeostasis. Uncovering the atomic details of 26RFa recognition and regulation of QRFPR is crucial for unraveling the function of QRFPR and developing effective treatments against obesity, diabetes, and eating disorders. […] The unique organization mode is crucial for the recognition of 26RFa by QRFPR. The C-terminal heptapeptide of 26R ...

NPY1R and NPY4R = conditions: cited from earlier work
Text: Specifically, Arg25 and Arg35 in 26RFa and NPY/PP are exposed to a conserved polar environment that includes residues E^45.52, T^5.39, and D/E^6.59 in QRFPR and NPYRs. However, subtle differences exist in the special binding interactions between these arginines and conserved polar residues (Fig. 4d–f). Side chains of Arg35 in NPY/PP form a conserved salt bridge with D^6.59 and a hydrogen bond with T^5.39 (NPY1R and NPY4R) or a salt bridge with E^45.52 (NPY2R) (Fig. 4e, f). In 26RFa, Arg25 retains its salt bridge with E203^45.52 but fails to build a salt bridge with E297^6.59 (Fig. 3b). It is p ... || Phe26 in 26RFa and Tyr36 in NPY/PP show distinct binding characteristics for QRFRP and NPYRs, respectively. […] (Fig. 4e). However, in NPY2R, this hydrogen bond is absent due to the substitution of glutamine with leucine at position 5.46, which lacks a hydrogen bond donor (Fig. 4c, f). Similarly, QRFPR also has a leucine at position 5.46, which cannot form a corresponding hydrogen bond with Phe26 in 26RFa. Furthermore, in contrast to the notable impact of Q^5.46 on the NP ...

T11 sequence (Q96P65 whole entry F289A): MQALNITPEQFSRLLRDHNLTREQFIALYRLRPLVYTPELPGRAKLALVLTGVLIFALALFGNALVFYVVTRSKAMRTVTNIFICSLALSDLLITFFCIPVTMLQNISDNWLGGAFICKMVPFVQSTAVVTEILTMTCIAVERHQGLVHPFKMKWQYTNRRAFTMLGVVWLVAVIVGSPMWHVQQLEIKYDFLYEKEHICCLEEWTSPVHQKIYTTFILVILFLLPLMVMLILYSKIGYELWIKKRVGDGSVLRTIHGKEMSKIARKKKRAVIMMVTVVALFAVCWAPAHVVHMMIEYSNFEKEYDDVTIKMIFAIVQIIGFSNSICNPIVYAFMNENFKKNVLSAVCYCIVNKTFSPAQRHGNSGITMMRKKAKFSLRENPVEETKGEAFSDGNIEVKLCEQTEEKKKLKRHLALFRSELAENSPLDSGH
T2 sequence (Q96P65 whole entry L193A): as the sequence (Q96P65 whole entry F289A) above, with L193A, A289F counted along it
T6 sequence (Q96P65 whole entry C118A): as the sequence (Q96P65 whole entry F289A) above, with C118A, A289F counted along it
T4 sequence (Q96P65 whole entry I117A): as the sequence (Q96P65 whole entry F289A) above, with I117A, A289F counted along it
T5 sequence (Q96P65 whole entry F322A): as the sequence (Q96P65 whole entry F289A) above, with A289F, F322A counted along it
T8 sequence (Q96P65 whole entry V129A): as the sequence (Q96P65 whole entry F289A) above, with V129A, A289F counted along it
T1 sequence (Q96P65 whole entry Q125A): as the sequence (Q96P65 whole entry F289A) above, with Q125A, A289F counted along it
T10 sequence (Q96P65 whole entry V101A): as the sequence (Q96P65 whole entry F289A) above, with V101A, A289F counted along it
T3 sequence (Q96P65 whole entry I218A): as the sequence (Q96P65 whole entry F289A) above, with I218A, A289F counted along it
T9 sequence (Q96P65 whole entry C201A): as the sequence (Q96P65 whole entry F289A) above, with C201A, A289F counted along it
T7 sequence (Q96P65 whole entry D109A): as the sequence (Q96P65 whole entry F289A) above, with D109A, A289F counted along it

In the case of ASGPLGTLAEELSSYSRRKGGFSFRF-NH2 [26RFa], the Emax (QRFPR mutants [1]) is reported as 14.1 ± 1.8%, the Emax (QRFPR mutants [2]; HEK293, QRFPR L193^ECL2A, HEK293, Fluo-4, mean ± S.E.M., n ≥ 3) is reported as 66.8 ± 0.54% and the “effect of mutation on peptide activity” value (QRFPR mutants [2]; QRFPR L193A) is reported as “remarkable decline in peptide activity”. The Emax (QRFPR mutants [3]) was 77.8 ± 0.31%, the Emax (QRFPR mutants [4]) was 75.1 ± 3.1% and the Emax (QRFPR mutants [5]) was 11.1 ± 0.26%. The Emax (QRFPR mutants [6]) was 1.43 ± 0.55%, the Emax (QRFPR mutants [7]) was 111 ± 1.3% and the Emax (QRFPR mutants [8]) was 42.7 ± 0.71%. It also gave an Emax (QRFPR mutants [9]) of 1.84 ± 1.5%, an Emax (QRFPR mutants [10]) of 102 ± 1.7% and an Emax (QRFPR mutants [11]; HEK293, QRFPR F289^6.51A, HEK293, Fluo-4, mean ± S.E.M., n ≥ 3) of 54.4 ± 1.4%. The “effect of mutation on 26RFa activity” value (QRFPR mutants [11]; QRFPR F289^6.51 to alanine) was “dramatic decrease in the activity of 26RFa”, the “selectivity for QRFPR” value (QRFPR) was “high selectivity of 26RFa for QRFPR” and the “role of amide-surrounding residues (C^2.57, T^2.61, Q^3.32, Q/H^7.39) in activity” value (NPY1R and NPY4R) was “critical for 26RFa and NPY/PP activities”.
